Tests used:
Thrombin = Thrombin (Homo sapiens, UniProt P00734); test: Determination of inhibition constants for thrombin; type: biochemical
Protocol: (§1) The inhibitory effect for the individual enzymes was determined in analogy to a previously disclosed method (Stürzebecher et al., 1997).
(§2) For zero order kinetics, the reaction was stopped after 20 min by adding 25 μl of acetic acid (50% v/v), and the absorption at 405 nm was determined using a Microplate Reader (Multiscan Ascent, from Thermo). In the case of pseudo-first order kinetics, the reaction rates in the equilibrium state were ascertained by recording the reaction kinetics. The Ki values were ascertained either in accordance with Dixon (1953) by linear regression using a computer program or by parameter fitting in accordance with the rate equation for competitive inhibition. The Ki values are the average of at least two determinations.

[1] = system: thrombin generation in platelet-rich human plasma; test: Thrombin generation assay (Technothrombin TGA); type: cell-based; conditions: 100 to 1000 nM, intrinsic and extrinsic activation
Protocol: Venous blood was withdrawn from the antecubital vein from healthy volunteers after written informed consent in accordance with local and federal guidelines with approval of the local review board (Ethikkommission, Klinikum Charité, Sauerbruchweg 5, 10117 Berlin). The blood was mixed with 0.11 mol/L sodium citrate (1:10). For ROTEM® analysis, whole citrated blood was used within 8 h after collection. Platelet-rich plasma (PRP) was prepared from citrated blood by centrifugation at 330×g for 10 min at room temperature, platelet-poor plasma (PPP) was collected following centrifugation at 1220×g for 12 min. The PRP was then adjusted to 3×10^8 platelets per mL using the autologous PPP. PRP was maintained at room temperature for less than 4 h before analysis. The remaining PPP was subjected to a high-speed centrifugation at 40,000×g for 30 min at 4° C. to remove any particulate material and was then stored at −70° C. until use.
The impact of Compound No. 3 and aprotinin on thrombin generation was studied in PRP using the commercially available Technothrombin® TGA kit (Technoclone, Vienna, Austria). This method allows assessment of the dynamics of thrombin generation, i.e. initiation, propagation, and inactivation phases, including the contribution of platelet function to the clotting process (Hemker et al., Pathophysiol. Haemost. Thromb. 33: 4-15, 2003). PRP was spiked with test compounds at different concentrations and pre-warmed to 37° C. in a black 96-well flat-bottom plate (Nunc, Wiesbaden, Germany). Thrombin generation was then initiated by adding a mixture of activator and fluorogenic thrombin substrate. […] Starting immediately after addition of reagents, fluorescence was recorded every 60 s for 120 min using the BMG POLARstar microplate reader (BMG Labtech, Offenburg, Germany) set at 390 nm excitation and 460 nm emission maintaining a temperature of 37° C. […] A typical thrombin generation curve is generated by plotting the first derivative (dF/dt) of the original fluorescence versus time curve and comparing it to a standard run containing known amounts of thrombin in buffer. […]

plasma kallikrein [2] = target: T1, plasma kallikrein (Homo sapiens, UniProt P03952); test: Determination of inhibition constants for PK; type: biochemical; parameters: purchased Enzyme Research Lab. / Enzyme Research Laboratories; conditions: 25° C., substrate S2302, pH 8.0; read-out: PK [Ki]
Protocol: as §1, §2

plasma kallikrein [3] = target: T1, plasma kallikrein; test: Inhibition constants against purified human serine proteases: plasma kallikrein; type: biochemical; parameters: purchased Enzyme Research Lab. / Enzyme Research Laboratories
Excerpt: Aprotinin and tranexamic acid were purchased from SIGMA (Schnelldorf, Germany). Human factor Xa, factor XIa, factor XIIa, thrombin, and plasma kallikrein were purchased from Enzyme Research Laboratories, and human plasmin from Chromogenix (both via Haemochrom, Essen, Germany). Various synthetic peptide chromogenic substrates used for determination of inhibition constants were obtained from Pentapharm (Basel, Switzerland), Roche (Mannheim, Germany), and Chromogenix: Chromozyme PL for plasmin, S2302 for plasma kallikrein, Pefachrome FXa for factor Xa, Chromozym XII for FXIIa, Pefachrom tPA for thrombin, and Pefachrome PCa for factor XIa. […]
Inhibition of purified human serine proteases by Compound No. 3 and aprotinin was studied using the established methods described herein in Example 3 (i.e., Stürzebecher et al., 1997). […] Steady-state velocities of substrate conversion were obtained from progress curves generated by continuous monitoring of the absorbance at 405 nm with a microplate reader (Multiskan Ascent, Thermo Electron Corporation, Dreieich, Germany). […] Inhibition constants (Ki) were calculated from non-linear fits of individual data sets to the Michaelis-Menten equation for competitive inhibitors using an enzyme kinetic analysis software (SIGMA Plot® 9.0 Enzyme Kinetics Module, SSI, San Jose, Calif.). […]

Xa = Xa (Homo sapiens, UniProt P00742); test: Determination of inhibition constants for Xa; type: biochemical
Protocol: as §1, §2

trypsin = conditions: background; cited from earlier work

T1 sequence (P03952 391-638 limits assumed): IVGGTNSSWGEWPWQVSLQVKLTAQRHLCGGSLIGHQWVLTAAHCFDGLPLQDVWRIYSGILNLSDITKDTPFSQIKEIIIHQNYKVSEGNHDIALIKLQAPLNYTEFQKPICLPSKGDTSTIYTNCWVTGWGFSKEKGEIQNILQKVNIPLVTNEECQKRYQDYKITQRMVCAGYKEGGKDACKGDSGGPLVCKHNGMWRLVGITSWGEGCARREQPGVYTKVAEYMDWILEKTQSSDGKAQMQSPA
T1 sequence (P03952 20-390 partner limits assumed): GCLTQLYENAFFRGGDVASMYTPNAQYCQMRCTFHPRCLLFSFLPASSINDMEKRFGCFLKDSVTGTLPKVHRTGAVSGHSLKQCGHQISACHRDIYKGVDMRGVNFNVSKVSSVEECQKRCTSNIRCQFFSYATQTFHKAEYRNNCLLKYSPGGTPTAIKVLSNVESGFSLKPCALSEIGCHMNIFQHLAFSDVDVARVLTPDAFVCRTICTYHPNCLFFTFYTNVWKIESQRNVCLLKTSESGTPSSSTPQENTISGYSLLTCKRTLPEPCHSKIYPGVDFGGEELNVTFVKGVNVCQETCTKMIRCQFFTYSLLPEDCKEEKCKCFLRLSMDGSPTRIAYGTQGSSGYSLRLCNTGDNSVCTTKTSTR
Chain of Xa (P00742 235-488 limits assumed): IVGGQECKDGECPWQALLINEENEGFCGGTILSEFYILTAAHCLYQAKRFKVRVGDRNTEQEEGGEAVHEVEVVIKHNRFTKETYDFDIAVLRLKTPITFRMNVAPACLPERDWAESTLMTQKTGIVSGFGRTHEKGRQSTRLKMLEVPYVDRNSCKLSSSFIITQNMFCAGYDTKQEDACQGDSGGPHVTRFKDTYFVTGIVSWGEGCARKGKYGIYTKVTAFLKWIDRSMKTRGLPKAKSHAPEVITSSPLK
Chain of Xa (P00742 41-179 limits assumed): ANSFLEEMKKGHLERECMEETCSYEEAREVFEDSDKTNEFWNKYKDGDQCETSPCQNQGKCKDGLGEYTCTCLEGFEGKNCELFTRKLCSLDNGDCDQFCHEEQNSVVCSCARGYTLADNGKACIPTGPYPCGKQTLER

Compound: N=C(N)c1ccc(CNC(=O)[C@H](Cc2cccc(CN)c2)NC(=O)[C@@H](CCCc2ccccc2)NS(=O)(=O)Cc2cccc(C(=O)O)c2)cc1 [compound 3, 3-HOOC-Bzls-d-Ppg-Phe(3-Ame)-4-Amba×2 acetate]
- Ki (Thrombin): > 1000 nM
- endogenous thrombin potential [1]: no impact
- onset of thrombin generation [1]: concentration-dependent delay
- peak thrombin level [1]: reduction
- Ki (plasma kallikrein [2]): < 10 nM
- Ki (plasma kallikrein [3]; 50 mM Tris-HCl pH 8.0, 154 mM NaCl, S2302): 0.019 ± 0.003 nM
- stronger inhibition of plasma kallikrein than aprotinin (plasma kallikrein [3]; versus aprotinin): 2000 fold
- Ki (Xa): < 100 nM

Compound: aprotinin
- Ki (trypsin): 0.1 nM
